In US11584755B2 (IDEAYA BIOSCIENCES, INC., priority 2017, dated 2023):

Tests used:
Assay type in all cases: biochemical
[1] = target: hEXO1, Isoform1 (Homo sapiens (Human), UniProt Q9UQ84); test: Enzymatic IC50 assay, FAM-labeled DNA oligomer substrate, fluorescence intensity (EXO1); settings: hEXO1 6 nM, substrate 30 nM, reaction time 60 minutes, 23° C.
How it was run: (§1)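 FEN1, EXO1 or XPG was preincubated 15 min with compound, then the FAM-labelled DNA oligomer substrate was added in Tris-HCl pH 8.0 with 10 mM MgCl2 at 23° C. FEN1 was 70 pM with 100 nM substrate for 20 min, EXO1 6 nM with 30 nM for 60 min, and XPG 100 nM with 100 nM for 120 min. Reactions were EDTA-stopped and read by fluorescence intensity.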

[2] = target: hXPG (Homo sapiens (Human), UniProt P28715); test: Enzymatic IC50 assay, FAM-labeled DNA oligomer substrate, fluorescence intensity (XPG); settings: hXPG 100 nM, substrate 100 nM, reaction time 120 minutes, 23° C.
How it was run: as §1

[3] = target: hFEN1 (Homo sapiens (Human), UniProt P39748); test: Enzymatic IC50 assay, FAM-labeled DNA oligomer substrate, fluorescence intensity (FEN1); settings: hFEN1 70 pM, substrate 100 nM, reaction time 20 minutes, 23° C.
How it was run: as §1

hEXO1, Isoform1, sequence (Q9UQ84 whole entry, canonical isoform): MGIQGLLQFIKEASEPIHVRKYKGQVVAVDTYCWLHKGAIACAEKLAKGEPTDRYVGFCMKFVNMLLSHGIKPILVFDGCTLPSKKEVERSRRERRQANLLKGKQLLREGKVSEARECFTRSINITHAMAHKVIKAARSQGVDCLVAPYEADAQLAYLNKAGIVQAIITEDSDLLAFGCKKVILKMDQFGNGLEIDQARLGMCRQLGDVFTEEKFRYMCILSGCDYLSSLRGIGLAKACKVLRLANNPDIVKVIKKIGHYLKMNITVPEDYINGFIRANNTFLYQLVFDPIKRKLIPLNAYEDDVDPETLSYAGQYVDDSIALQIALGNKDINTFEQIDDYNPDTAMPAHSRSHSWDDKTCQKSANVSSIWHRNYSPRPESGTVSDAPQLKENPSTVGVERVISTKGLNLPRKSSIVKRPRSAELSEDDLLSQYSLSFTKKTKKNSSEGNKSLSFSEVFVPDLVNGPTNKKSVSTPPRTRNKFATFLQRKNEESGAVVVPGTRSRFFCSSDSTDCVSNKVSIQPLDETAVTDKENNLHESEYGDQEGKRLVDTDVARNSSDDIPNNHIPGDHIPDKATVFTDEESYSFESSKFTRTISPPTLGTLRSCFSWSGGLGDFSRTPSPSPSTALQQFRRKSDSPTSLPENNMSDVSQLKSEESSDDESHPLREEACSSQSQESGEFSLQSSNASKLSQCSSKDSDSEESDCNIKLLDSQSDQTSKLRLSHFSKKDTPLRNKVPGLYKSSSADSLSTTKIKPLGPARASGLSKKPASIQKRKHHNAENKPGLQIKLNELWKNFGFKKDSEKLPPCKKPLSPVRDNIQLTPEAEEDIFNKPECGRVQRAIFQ
hXPG, sequence (P28715 whole entry): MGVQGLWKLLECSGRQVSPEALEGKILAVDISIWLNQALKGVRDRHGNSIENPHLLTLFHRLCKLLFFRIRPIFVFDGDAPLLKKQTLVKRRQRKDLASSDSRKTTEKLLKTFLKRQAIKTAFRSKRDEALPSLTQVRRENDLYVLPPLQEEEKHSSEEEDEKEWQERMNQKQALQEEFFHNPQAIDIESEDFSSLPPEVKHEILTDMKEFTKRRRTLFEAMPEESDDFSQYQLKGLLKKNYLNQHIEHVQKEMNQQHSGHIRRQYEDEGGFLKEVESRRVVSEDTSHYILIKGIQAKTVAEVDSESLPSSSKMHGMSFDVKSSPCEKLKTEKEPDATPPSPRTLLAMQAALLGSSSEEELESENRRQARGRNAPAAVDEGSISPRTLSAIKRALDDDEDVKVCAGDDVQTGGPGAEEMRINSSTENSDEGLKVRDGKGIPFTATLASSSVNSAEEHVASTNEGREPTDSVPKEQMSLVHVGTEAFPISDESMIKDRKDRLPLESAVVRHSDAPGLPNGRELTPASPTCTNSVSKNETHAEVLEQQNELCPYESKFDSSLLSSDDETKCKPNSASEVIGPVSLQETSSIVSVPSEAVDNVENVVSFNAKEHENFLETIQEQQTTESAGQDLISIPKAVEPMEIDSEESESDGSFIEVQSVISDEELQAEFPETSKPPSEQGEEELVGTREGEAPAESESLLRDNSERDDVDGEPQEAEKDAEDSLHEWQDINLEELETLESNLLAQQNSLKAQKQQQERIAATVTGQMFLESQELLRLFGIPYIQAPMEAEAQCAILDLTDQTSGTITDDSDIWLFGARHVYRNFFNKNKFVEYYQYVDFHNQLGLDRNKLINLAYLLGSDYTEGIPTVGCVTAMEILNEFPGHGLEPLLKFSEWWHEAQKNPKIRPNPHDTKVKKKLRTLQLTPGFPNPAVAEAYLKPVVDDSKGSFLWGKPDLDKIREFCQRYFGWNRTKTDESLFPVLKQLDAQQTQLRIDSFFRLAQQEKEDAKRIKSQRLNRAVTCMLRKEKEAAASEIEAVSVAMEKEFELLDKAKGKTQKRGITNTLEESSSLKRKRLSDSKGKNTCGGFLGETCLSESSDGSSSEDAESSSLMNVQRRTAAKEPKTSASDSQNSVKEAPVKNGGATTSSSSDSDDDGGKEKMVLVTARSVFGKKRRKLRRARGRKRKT
hFEN1, sequence (P39748 whole entry): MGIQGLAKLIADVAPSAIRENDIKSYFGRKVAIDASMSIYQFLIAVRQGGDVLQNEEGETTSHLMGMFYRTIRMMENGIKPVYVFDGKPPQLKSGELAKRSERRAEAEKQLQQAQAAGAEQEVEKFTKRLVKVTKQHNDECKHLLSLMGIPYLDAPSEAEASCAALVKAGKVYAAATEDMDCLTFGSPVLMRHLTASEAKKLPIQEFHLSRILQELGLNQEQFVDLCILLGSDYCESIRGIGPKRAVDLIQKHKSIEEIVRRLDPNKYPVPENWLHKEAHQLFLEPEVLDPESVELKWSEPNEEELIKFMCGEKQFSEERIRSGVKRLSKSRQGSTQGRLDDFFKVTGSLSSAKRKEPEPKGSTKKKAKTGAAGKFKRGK

IC50 [1]: 2250 to 10000 nM | IC50 [2]: 2250 to 10000 nM | IC50 [3]: < 200 nM
SMILES: O=C(O)c1c(O)c(=O)n(Cc2cnn(CC(=O)N3CCOCC3)c2)c2ccsc12 [Example 156]
